Here are results for 46 molecules from patent US12128028B2, “Heterocyclic sulfonamide derivatives and pharmaceutical uses thereof” (METRION BIOSCIENCES LIMITED, priority 2018, dated 2024).

The target in the assay is human Kv1.3 (Homo sapiens (Human), UniProt P22001). Briefly: Kv1.3 potency evaluation, automated patch clamp electrophysiology (QPatch HT) in CHO-Kv1.3 cells. The note with it: whole-cell QPatch HT, % inhibition of charge, step to +30 mV, four concentrations, N≥3 cells, read-out: hKv1.3 IC50. The class given is cell-based. Put shortly:
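Automated whole-cell patch clamp in CHO cells stably expressing human Kv1.3; steps from −80 to +30 mV (500 ms) at 0.067 Hz. Four cumulative concentrations after vehicle (0.1-0.3% DMSO); charge inhibition vs vehicle fitted by four-parameter logistic for IC50, N≥3 cells.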
On the technique in general: In patch-clamp work, channel activity is measured electrically.

human Kv1.3, sequence (P22001 whole entry): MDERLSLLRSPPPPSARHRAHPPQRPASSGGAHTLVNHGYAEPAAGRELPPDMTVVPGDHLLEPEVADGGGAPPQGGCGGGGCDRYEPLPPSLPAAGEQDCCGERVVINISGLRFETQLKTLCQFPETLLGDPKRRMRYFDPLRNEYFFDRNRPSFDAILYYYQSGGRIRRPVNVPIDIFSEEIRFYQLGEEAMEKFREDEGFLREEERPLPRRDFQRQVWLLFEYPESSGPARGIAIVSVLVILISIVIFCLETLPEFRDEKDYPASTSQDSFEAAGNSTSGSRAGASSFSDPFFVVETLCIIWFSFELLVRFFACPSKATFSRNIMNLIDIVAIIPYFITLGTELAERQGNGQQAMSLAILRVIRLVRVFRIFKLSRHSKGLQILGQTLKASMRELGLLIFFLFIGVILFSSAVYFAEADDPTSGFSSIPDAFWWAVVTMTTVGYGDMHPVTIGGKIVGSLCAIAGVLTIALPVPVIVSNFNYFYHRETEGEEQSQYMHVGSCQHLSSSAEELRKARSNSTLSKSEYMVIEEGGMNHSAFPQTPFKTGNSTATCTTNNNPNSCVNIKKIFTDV

For `CC1(C)N=C(C23CC(N(Cc4ccc(Cl)c(F)c4)S(=O)(=O)c4ccccc4)(C2)C3)N[C@H]1C(=O)NCCC1(C(F)(F)F)CC1` (mixture of isomers) [Example 149], the half-maximal inhibitory concentration (IC50) is 89 nM.
Consider `C[C@]1(C(=O)NCC2CCC2)CN=C(C23CC(N(Cc4ccc(C(F)(F)F)cc4)S(=O)(=O)c4ccc(F)cc4)(C2)C3)N1` (mixture of isomers) [Example 214], for which the concentration for half-maximal inhibition (IC50) is 159 nM.
As for `CC(C)NC(=O)[C@H]1NC(C23CC(N(Cc4ccc(Cl)c(F)c4)S(=O)(=O)c4ccccc4)(C2)C3)=NC1(C)C` (mixture of isomers) [Example 240], the IC50 was determined as 235 nM.
Regarding `CN(CC(C)(C)F)C(=O)[C@@H]1NC(C23CC(N(Cc4ccc(Cl)c(F)c4)S(=O)(=O)c4ccccc4)(C2)C3)=NC1(C)C` (mixture of isomers) [Example 95], the IC50 was 64 nM.
With `CC1(C)N=C(C23CC(N(Cc4ccc(Cl)c(F)c4)S(=O)(=O)c4ccccc4)(C2)C3)N[C@H]1C(=O)NCC1(C(F)(F)F)CC1` (mixture of isomers) [Example 26], the IC50 is 54 nM.
`CCCS(=O)(=O)N(Cc1ccc(Cl)cc1)C12CC(C3=NC(C)(C)[C@H](C(=O)NCCC(F)(F)F)N3)(C1)C2` (mixture of isomers) [Example 7]: the IC50 stood at 26 nM.
Regarding `CC1(C)N=C(C23CC(N(Cc4ccc(Cl)c(Cl)c4)S(=O)(=O)c4ccccc4)(C2)C3)N[C@H]1C(=O)N1CCC12CC(F)(F)C2` (mixture of isomers) [Example 134], the IC50 was found to be 79 nM.
In the case of `CC1(C)N=C(C23CC(N(Cc4ccc(Cl)cc4)S(=O)(=O)c4ccccc4)(C2)C3)NC1C(=O)NCCC(F)(F)F` (stereo not shown) [Example 148], the half-maximal inhibitory concentration (IC50) came out at 89 nM.
Under `CCCNC(=O)[C@@H]1NC(C23CC(N(Cc4ccc(Cl)c(F)c4)S(=O)(=O)c4ccccc4)(C2)C3)=NC1(C)C` (mixture of isomers) [Example 19] stands 37 nM.
Under `CC1(C)N=C(C23CC(N(Cc4ccc(Cl)cc4)S(=O)(=O)c4ccccc4)(C2)C3)N[C@H]1C(=O)NC1CC(C(F)F)C1` (mixture of isomers) [Example 45] stands 46 nM; under `CC(F)(F)CCS(=O)(=O)N(Cc1ccc(Cl)cc1)C12CC(C3=NC(C)(C)[C@H](C(=O)NCCC(F)(F)F)N3)(C1)C2` (mixture of isomers) [Example 93], 64 nM.
Regarding `CC1(C)N=C(C23CC(N(Cc4ccc(Cl)cc4)S(=O)(=O)CC4CC4)(C2)C3)N[C@H]1C(=O)NCCC(F)(F)F` (mixture of isomers) [Example 4], the IC50 was found to be 79 nM.
Then `CC1(C)N=C(C23CC(N(Cc4ccc(Cl)cc4)S(=O)(=O)c4cccnc4)(C2)C3)N[C@H]1C(=O)NCCC(F)(F)F` (mixture of isomers) [Example 110], with 72 nM; and `CC(C)(C)CS(=O)(=O)N(Cc1ccc(Cl)cc1)C12CC(C3=NC(C)(C)[C@H](C(=O)NCCC(F)(F)F)N3)(C1)C2` (mixture of isomers) [Example 139], with 84 nM.
As to `CC1(C)N=C(C23CC(N(Cc4ccc(Cl)c(F)c4)S(=O)(=O)c4ccccc4)(C2)C3)N[C@H]1C(=O)NC1CC(C(F)F)C1` (mixture of isomers) [Example 89], the IC50 was determined as 63 nM.
For `CC1(C)N=C(C23CC(N(Cc4ccc(Cl)c(Cl)c4)S(=O)(=O)CCC(F)F)(C2)C3)N[C@H]1C(=O)NC1CC(C(F)F)C1` (mixture of isomers) [Example 204], the IC50 is 135 nM.
Take `CC(C)(C)CNC(=O)[C@@H]1NC(C23CC(N(Cc4ccc(Cl)c(Cl)c4)S(=O)(=O)CCC(C)(F)F)(C2)C3)=NC1(C)C` (mixture of isomers) [Example 203]: the IC50 was 134 nM.
As for `CC1(C)N=C(C23CC(N(Cc4ccc(Cl)c(F)c4)S(=O)(=O)c4ccccc4)(C2)C3)N[C@H]1C(=O)NC1CCC(F)(F)CC1` (mixture of isomers) [Example 104], the IC50 is 69 nM.
As to `CC1(C)N=C(C23CC(N(Cc4ccc(C(F)(F)F)cc4)S(=O)(=O)c4ccc(F)cc4)(C2)C3)N[C@@H]1C(=O)NCCC(F)(F)F` (mixture of isomers) [Example 251], the IC50 is 307 nM.
In the case of `C[C@]1(C(=O)NC2CCC2)CN=C(C23CC(N(Cc4ccc(C(F)(F)F)cc4)S(=O)(=O)c4ccc(F)cc4)(C2)C3)N1` (mixture of isomers) [Example 199], the IC50 was determined as 129 nM.
As for `CC1(C)N=C(C23CC(N(Cc4ccc(Cl)c(F)c4)S(=O)(=O)c4ccccc4)(C2)C3)N[C@H]1C(=O)N(CCC(F)(F)F)C1CC1` (mixture of isomers) [Example 119], the half-maximal inhibitory concentration (IC50) is 74 nM.
For the molecule `CC1(C)N=C(C23CC(N(Cc4ccc(Cl)c(F)c4)S(=O)(=O)c4ccccc4)(C2)C3)N[C@H]1C(=O)N1CCC1` (mixture of isomers) [Example 282], the IC50 stood at 706 nM.
Then `CC1(C)N=C(C23CC(N(Cc4ccc(Cl)cc4)S(=O)(=O)CCCC(F)(F)F)(C2)C3)N[C@H]1C(=O)NCCC(F)(F)F` (mixture of isomers) [Example 206], with 137 nM.
For `CC1(C)N=C(C23CC(N(Cc4ccc(Cl)cc4)S(=O)(=O)CCC4CC4)(C2)C3)N[C@H]1C(=O)NCCC(F)(F)F` (mixture of isomers) [Example 67], the 50% inhibitory concentration (IC50) stood at 53 nM.
In the case of `CC1(C)N=C(C23CC(N(Cc4ccc(Cl)c(F)c4)S(=O)(=O)c4ccccc4)(C2)C3)N[C@H]1C(=O)NC(C1CC1)C1CC1` (mixture of isomers) [Example 168], the IC50 came to 99 nM.
Regarding `C[C@]1(C(=O)NC2CCCCC2)CN=C(C23CC(N(Cc4ccc(C(F)(F)F)cc4)S(=O)(=O)c4ccc(F)cc4)(C2)C3)N1` (mixture of isomers) [Example 268], the IC50 came out at 441 nM.
For the molecule `CC1(NC(=O)[C@@]2(C)CN=C(C34CC(N(Cc5ccc(C(F)(F)F)cc5)S(=O)(=O)c5ccc(F)cc5)(C3)C4)N2)CCC1` (mixture of isomers) [Example 228], the IC50 amounted to 190 nM.
Then `CC1(C)N=C(C23CC(N(Cc4ccc(Cl)c(F)c4)S(=O)(=O)c4ccccc4)(C2)C3)N[C@H]1C(=O)N1CCOCC1` (mixture of isomers) [Example 257], with 348 nM; and `CC1(C)N=C(C23CC(N(Cc4ccc(C(F)(F)F)cc4)S(=O)(=O)c4ccc(F)cc4)(C2)C3)N[C@@]1(C)C(=O)NCCC(F)(F)F` (mixture of isomers) [Example 255], with 341 nM.
Under `CC1(C)N=C(C23CC(N(Cc4ccc(C(F)(F)F)cc4)S(=O)(=O)c4ccc(F)cc4)(C2)C3)NC1C(=O)NCC1CC1(F)F` (stereo not shown) [Example 161] stands 98 nM; under `CC(C)NC(=O)C1NC(C23CC(N(Cc4ccc(C(F)(F)F)cc4)S(=O)(=O)c4ccc(F)cc4)(C2)C3)=NC1(C)C` (stereo not shown) [Example 208], 143 nM; under `CC1(C)N=C(C23CC(N(Cc4ccc(C(F)(F)F)cc4)S(=O)(=O)c4ccc(F)cc4)(C2)C3)N[C@H]1C(=O)NCCC(F)(F)F` (mixture of isomers) [Example 217], 167 nM.
Turning to `CC1(C)N=C(C23CC(N(Cc4ccc(Cl)cc4)S(=O)(=O)CCO)(C2)C3)N[C@H]1C(=O)NCCC(F)(F)F` (mixture of isomers) [Example 294], the 50% inhibitory concentration (IC50) is 10500 nM.
Under `CC1(C)N=C(C23CC(N(Cc4ccc(Cl)cc4)S(=O)(=O)c4ccccc4)(C2)C3)N[C@H]1C(=O)NC[C@H]1CC1(F)F` (mixture of isomers) [Example 39] stands 45 nM; under `CC1(C)N=C(C23CC(N(Cc4ccc(Cl)c(Cl)c4)S(=O)(=O)CCC(F)F)(C2)C3)N[C@H]1C(=O)NCC1CC1(F)F` (mixture of isomers) [Example 103], 68 nM.
Then `CC1(C)N=C(C23CC(N(Cc4ccc(Cl)c(F)c4)S(=O)(=O)c4ccccc4)(C2)C3)N[C@H]1C(=O)N1CCCCC1` (mixture of isomers) [Example 31], with 42 nM; and `CC1(C)N=C(C23CC(N(Cc4ccc(Cl)cc4)S(=O)(=O)c4ccccc4C#N)(C2)C3)N[C@H]1C(=O)NCCC(F)(F)F` (mixture of isomers) [Example 99], with 67 nM; and `CCCS(=O)(=O)N(Cc1ccc(Cl)c(Cl)c1)C12CC(C3=NC(C)(C)[C@H](C(=O)NC4CCC(F)(F)CC4)N3)(C1)C2` (mixture of isomers) [Example 174], with 103 nM.
As to `CC(F)(F)CCS(=O)(=O)N(Cc1ccc(Cl)c(Cl)c1)C12CC(C3=NC(C)(C)[C@H](C(=O)NC45CC(C4)C5)N3)(C1)C2` (mixture of isomers) [Example 74], the IC50 amounted to 58 nM.
On to `CN(CCC(F)(F)F)C(=O)[C@@H]1NC(C23CC(N(Cc4ccc(Cl)c(F)c4)S(=O)(=O)c4ccccc4)(C2)C3)=NC1(C)C` (mixture of isomers) [Example 3], for which the IC50 stood at 61 nM.
For the molecule `CC1(C)N=C(C23CC(N(Cc4ccc(Cl)cc4)S(=O)(=O)c4ccccn4)(C2)C3)N[C@H]1C(=O)NCCC(F)(F)F` (mixture of isomers) [Example 48], the IC50 came out at 48 nM.
In the case of `CC1(C)N=C(C23CC(N(Cc4ccc(Cl)c(Cl)c4)S(=O)(=O)c4ccccc4)(C2)C3)N[C@H]1C(=O)NCC(F)(F)C(F)(F)F` [Example 5], the IC50 was 138 nM.
With `CC1(C)N=C(C23CC(N(Cc4ccc(Cl)cc4)S(=O)(=O)c4cc(C(F)(F)F)ccc4O)(C2)C3)N[C@H]1C(=O)NCCC(F)(F)F` (mixture of isomers) [Example 286], the IC50 is 859 nM.
`CC1(C)N=C(C23CC(N(Cc4ccc(Cl)c(F)c4)S(=O)(=O)c4ccccc4)(C2)C3)N[C@H]1C(=O)N1CC2(CCC2)C1` (mixture of isomers) [Example 87]: the IC50 came to 63 nM.
For the molecule `C[C@@H](NC(=O)[C@@H]1NC(C23CC(N(Cc4ccc(Cl)c(F)c4)S(=O)(=O)c4ccccc4)(C2)C3)=NC1(C)C)C(F)(F)F` (mixture of isomers) [Example 34], the IC50 stood at 47 nM.
Turning to `CN(CC(C)(C)F)C(=O)[C@@H]1NC(C23CC(N(Cc4ccc(Cl)c(Cl)c4)S(=O)(=O)c4ccccc4)(C2)C3)=NC1(C)C` (mixture of isomers) [Example 58], the IC50 turned out to be 50 nM.

For orientation: IC50 means the concentration that inhibits the measured activity by half.
